Results from patent publication US7589089B2, “Inhibitors for GlyT-1” (Hoffmann-La Roche Inc., priority 2006, dated 2009).

Biological target: T1, mGlyT-1b (Mus musculus, UniProt P28571)
T1 construct: host or cells: Flp-in-CHO
T1 sequence (P28571 1-651 isoform P28571-2): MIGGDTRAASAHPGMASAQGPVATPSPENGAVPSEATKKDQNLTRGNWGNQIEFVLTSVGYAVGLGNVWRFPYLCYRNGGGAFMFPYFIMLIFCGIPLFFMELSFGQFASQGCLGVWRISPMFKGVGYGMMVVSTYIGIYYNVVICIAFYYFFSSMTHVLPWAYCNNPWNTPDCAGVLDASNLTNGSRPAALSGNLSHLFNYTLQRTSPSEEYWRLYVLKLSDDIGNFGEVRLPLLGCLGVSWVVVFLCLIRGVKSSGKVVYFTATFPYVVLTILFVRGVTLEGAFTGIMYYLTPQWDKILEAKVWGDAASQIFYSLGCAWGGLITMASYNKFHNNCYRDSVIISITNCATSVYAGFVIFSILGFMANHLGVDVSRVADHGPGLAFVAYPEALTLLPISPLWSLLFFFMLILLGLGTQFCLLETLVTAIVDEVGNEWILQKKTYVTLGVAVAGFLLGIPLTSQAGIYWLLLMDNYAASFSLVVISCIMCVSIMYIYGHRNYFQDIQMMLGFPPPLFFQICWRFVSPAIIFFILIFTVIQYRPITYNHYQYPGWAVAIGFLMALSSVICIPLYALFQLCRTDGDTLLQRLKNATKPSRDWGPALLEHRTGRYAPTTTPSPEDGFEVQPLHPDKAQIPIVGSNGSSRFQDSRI
Assay: Glycine Uptake Inhibition Assay (mGlyT-1b)
Type: cell-based
Description: DMEM complete medium: Nutrient mixture F-12 (Gibco Life-technologies), fetal bovine serum (FBS) 5%, (Gibco life technologies), Penicillin/Streptomycin 1% (Gibco life technologies), Hygromycin 0.6 mg/ml (Gibco life technologies), Glutamine 1 mM Gibco life technologies)
Uptake buffer (UB): 150 mM NaCl, 10 mM Hepes-Tris, pH 7.4, 1 mM CaCl2, 2.5 mM KCl, 2.5 mM MgSO4, 10 mM (+) D-glucose.
Flp-in™-CHO (Invitrogen Cat n° R758-07) cells stably transfected with mGlyT1b cDNA.
Glycine Uptake Inhibition Assay (mGlyT-1b)
On day 1 mammalian cells, (Flp-in™-CHO), transfected with mGlyT-1b cDNA, were plated at the density of 40,000 cells/well in complete F-12 medium, without hygromycin in 96-well culture plates. On day 2, the medium was aspirated and the cells were washed twice with uptake buffer (UB). The cells were then incubated for 20 min at 22° C. with either (i) no potential competitor, (ii) 10 mM non-radioactive glycine, (iii) a concentration of a potential inhibitor. A range of concentrations of the potential inhibitor was used to generate data for calculating the concentration of inhibitor resulting in 50% of the effect (e.g. IC50, the concentration of the competitor inhibiting glycine uptake of 50%). A solution was then immediately added containing [^3H]-glycine 60 nM (11-16 Ci/mmol) and 25 μM non-radioactive glycine. The plates were incubated with gentle shaking and the reaction was stopped by aspiration of the mixture and washing (three times) with ice-cold UB. The cells were lysed with scintillation liquid, shaken 3 hours and the radioactivity in the cells was counted using a scintillation counter.

Row | SMILES | IC50 [nM]
1 | O=C(CN(Cc1cccc(F)c1F)C(=O)c1ccc(F)cc1)Nc1ccc(F)c(Cl)c1 [Example 84, N-[(3-Chloro-4-fluoro-phenylcarbamoyl)-methyl]-N-(2,3-difluoro-benzyl)-4-fluoro-benzamide] | 178
2 | N#Cc1ccc(C(=O)N(CC(=O)Nc2ccc(F)c(Cl)c2)Cc2cccc(F)c2F)cc1 [Example 85, N-[(3-Chloro-4-fluoro-phenylcarbamoyl)-methyl]-4-cyano-N-(2,3-difluoro-benzyl)-benzamide] | 123
3 | N#Cc1ccc(C(=O)N(CC(=O)Nc2ccc(F)c(Cl)c2)Cc2c(F)cccc2F)cc1 [Example 88, N-[(3-Chloro-4-fluoro-phenylcarbamoyl)-methyl]-4-cyano-N-(2,6-difluoro-benzyl)-benzamide] | 199
4 | O=C(CN(Cc1cc(F)cc(F)c1)C(=O)c1ccc(Cl)cc1)Nc1ccc(F)c(Cl)c1 [Example 89, 4-Chloro-N-[(3-chloro-4-fluoro-phenylcarbamoyl)-methyl]-N-(3,5-difluoro-benzyl)-benzamide] | 306
5 | O=C(CN(Cc1cc(F)cc(F)c1)C(=O)c1ccc(OC(F)(F)F)cc1)Nc1ccc(F)c(Cl)c1 [Example 90, N-[(3-Chloro-4-fluoro-phenylcarbamoyl)-methyl]-N-(3,5-difluoro-benzyl)-4-trifluoromethoxy-benzamide] | 288
6 | CC(C)(C)CCN(CC(=O)Nc1cccc(Cl)c1)C(=O)c1ccc(Cl)cc1 [Example 96, 4-Chloro-N-[(3-chloro-phenylcarbamoyl)-methyl]-N-(3,3-dimethyl-butyl)-benzamide] | 359
7 | N#Cc1cccc(CN(CC(=O)Nc2cccc(Cl)c2)C(=O)c2ccc(Cl)cc2)c1 [Example 100, 4-Chloro-N-[(3-chloro-phenylcarbamoyl)-methyl]-N-(3-cyano-benzyl)-benzamide] | 192
8 | COc1ccccc1CN(CC(=O)Nc1cccc(Cl)c1)C(=O)c1ccc(Cl)cc1 [Example 102, 4-Chloro-N-[(3-chloro-phenylcarbamoyl)-methyl]-N-(2-methoxy-benzyl)-benzamide] | 60
9 | Cc1cccc(CN(CC(=O)Nc2cccc(Cl)c2)C(=O)c2ccc(Cl)cc2)c1 [Example 103, 4-Chloro-N-[(3-chloro-phenylcarbamoyl)-methyl]-N-(3-methyl-benzyl)-benzamide] | 142
10 | Cc1ccccc1CN(CC(=O)Nc1cccc(Cl)c1)C(=O)c1ccc(Cl)cc1 [Example 104, 4-Chloro-N-[(3-chloro-phenylcarbamoyl)-methyl]-N-(2-methyl-benzyl)-benzamide] | 209
11 | O=C(CN(Cc1cccc(Cl)c1)C(=O)c1ccc(Cl)cc1)Nc1cccc(Cl)c1 [Example 105, 4-Chloro-N-(3-chloro-benzyl)-N-[(3-chloro-phenylcarbamoyl)-methyl]-benzamide] | 21
12 | O=C(CN(Cc1ccccc1Cl)C(=O)c1ccc(Cl)cc1)Nc1cccc(Cl)c1 [Example 106, 4-Chloro-N-(2-chloro-benzyl)-N-[(3-chloro-phenylcarbamoyl)-methyl]-benzamide] | 25
13 | O=C(CN(Cc1ccco1)C(=O)c1ccc(Cl)cc1)Nc1cccc(Cl)c1 [Example 107, 4-Chloro-N-[(3-chloro-phenylcarbamoyl)-methyl]-N-furan-2-ylmethyl-benzamide] | 199
14 | COc1ccc(C(=O)N(CC(=O)Nc2ccc(F)c(Cl)c2)c2ccccc2)cc1 [Example 108, N-[(3-Chloro-4-fluoro-phenylcarbamoyl)-methyl]-4-methoxy-N-phenyl-benzamide] | 182
15 | COc1ccc(C(=O)N(CC(=O)Nc2ccc(C)c(Cl)c2)c2ccccc2)cc1 [Example 110, N-[(3-Chloro-4-methyl-phenylcarbamoyl)-methyl]-4-methoxy-N-phenyl-benzamide] | 369
16 | O=C(CN(C(=O)c1cc2ccccc2s1)c1ccccc1)Nc1ccc(Cl)c(Cl)c1 [Example 113, Benzo[b]thiophene-2-carboxylic acid [(3,4-dichloro-phenylcarbamoyl)-methyl]-phenyl-amide] | 150
